Experimental data published in patent US20240325572A1, “N-HETEROCYCLYL SUBSTITUTED 2-CYANO-3-(NAPHTHALEN-2-YL)ACRYLAMIDE DERIVATIVES AS FLUOROPHORS FOR DETECTION OF AMYLOID AND AMYLOID-LIKE PROTEINS FOR DIAGNOSIS OF NEURODEGENERATIVE DISORDERS” (Amydis, Inc., priority 2021, published 2024).

Target: T1, aggregated amyloid beta (Aβ1-42) (Homo sapiens, UniProt P05067)
T1 construct: Aβ1-42 peptide was aggregated in vitro using the following procedure
Experiment: In vitro binding studies of compounds with amyloid beta: fluorescent emission spectra with and without aggregated Aβ
Conditions: fold increase at maximum emission (compound+Aβ/compound), 4 μM compound, 5 μM aggregated Aβ in 1×PBS; for Fold Increase @ 450 nm: excitation 450 nm; for Fold Increase @ 488 nm: excitation 488 nm
Method: The fluorescent properties and emission spectra of compounds described herein with aggregated amyloid beta (Aβ1-42) were characterized as described below.
Emission spectra for compounds described herein were collected after incubation of the compounds with and without aggregated Aβ at specific excitation wavelengths (450 nm and 488 nm) employed in standard ocular imaging equipment.
Aβ1-42 peptide was aggregated in vitro using the following procedure. Aβ42 (HFIP) was removed from the freezer and allowed to warm to room temperature, then 1 mg of Aβ42 was dissolved in 215 μL of ddH2O for about 10-20 mins at room temperature. To the resulting solution, 2 mL of ddH2O was added to provide a 100 μM stock solution. A 100 μL aliquot was sampled and frozen (non-aggregated sample). The tubes were placed in a thermoshaker at 350 rpm for 3 days. Care was taken to avoid generating bubbles. Aβ aggregation was confirmed by measuring binding to Thioflavin T (ThT). Aggregated Aβ1-42 peptide was then portioned into 150 μL aliquots and stored at −80° C.
The fluorescent emission spectra were measured as follows to determine binding of Aβ to test compounds described herein. The Shimadzu fluorimeter was turned on and allowed to warm up for ˜60 minutes. The test compounds were then removed from the −20° C. freezer and were allowed to warm to room temperature. The 100 μM aggregated Aβ solution was then removed from the −80° C. freezer and also allowed to warm to room temperature. 250 μM solutions of each test compound in DMSO were then prepared. These were then used to prepare 4 μM solutions of each test compound, with and without 5 μM aggregated Aβ in 1×PBS, in triplicates. Using a cuvette, the fluorescent emission spectra were measured for each test compound+Aβ solution, employing a DMSO/PBS solution as a blank. Each sample was tested at an excitation of 450 nm and 488 nm. Fluorescent emission spectra were then collected for each 4 μM test compound solution alone. The resulting data were used to plot intensity vs. wavelength for each emission scan.

T1 sequence (P05067 672-713 limits assumed): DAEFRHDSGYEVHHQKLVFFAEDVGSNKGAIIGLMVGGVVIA

| SMILES | Fold Increase @ 450 nm | Fold Increase @ 488 nm |
| --- | --- | --- |
| N#C/C(=C\c1ccc2cc(N3CCCCC3)ccc2c1)C(=O)NCC(O)CO (centres unmarked) [Compound 4, (E)-2-cyano-N-(2,3-dihydroxypropyl)-3-(6-(piperidin-1-yl)naphthalen-2-yl)acrylamide, reference compound] | 15.28 | 18.53 |
| N#C/C(=C\c1ccc2ccccc2c1N1CCCCC1)C(=O)NCC(O)CO (centres unmarked) [Compound 6, (E)-2-cyano-N-(2,3-dihydroxypropyl)-3-(1-(piperidin-1-yl)naphthalen-2-yl)acrylamide] | 7.12 | 17.18 |
| N#C/C(=C\c1ccc2ccccc2c1N1CCC1)C(=O)NCC(O)CO (centres unmarked) [Compound 7, (E)-3-(1-(azetidin-1-yl)naphthalen-2-yl)-2-cyano-N-(2,3-dihydroxypropyl)acrylamide] | 4.31 | 2.84 |
| N#C/C(=C\c1ccc2cc(N3CCC3)ccc2c1)C(=O)NCC(O)CO (centres unmarked) [Compound 10, (E)-3-(6-(azetidin-1-yl)naphthalen-2-yl)-2-cyano-N-(2,3-dihydroxypropyl)acrylamide] | 21.98 | 19.13 |

More lines, now with the values ahead:

| Fold Increase @ 450 nm | Fold Increase @ 488 nm | SMILES |
| --- | --- | --- |
| 18.18 | 22.81 | N#C/C(=C\c1ccc2cc(N3CCCC3)ccc2c1)C(=O)NCC(O)CO (centres unmarked) [Compound 5, (E)-2-cyano-N-(2,3-dihydroxypropyl)-3-(6-(pyrrolidin-1-yl)naphthalen-2-yl)acrylamide] |
| 9.48 | 19.60 | N#C/C(=C\c1ccc2cc(N3CCCCC3)ccc2c1)C(=O)CC[C@H](O)CO [Compound 8, (S,E)-6,7-dihydroxy-3-oxo-2-((6-(piperidin-1-yl)naphthalen-2-yl)methylene)heptanenitrile] |
| 10.16 | 9.11 | N#C/C(=C\c1ccc2cc(N3CCCCC3)ccc2c1)C(=O)CCCOCCOCCO [Compound 9, (E)-6-(2-(2-hydroxyethoxy)ethoxy)-3-oxo-2-((6-(piperidin-1-yl)naphthalen-2-yl)methylene)hexanenitrile] |
